The structures appear in SMILES notation. Where two headings read alike, the source gives them in different places.

The subject of series [1] is P. berghei ookinete development. Conditions: for % inhibition, Replicate A / % inhibition, Replicate B: primary screen at 1 μM.
The test system of series [2] is 3D7-strain P. falciparum asexual parasites. Put plainly: P. falciparum asexual growth inhibition assay (Pf GIA). The series is classed as cell-based, Plasmodium falciparum. Conditions: dose response confirmation; read-out: Pf asexual growth inhibition assays IC50. The method in brief: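 Parasites at 0.25% parasitemia, 2% hematocrit in Albumax-supplemented RPMI were exposed to compounds in dose response for 72 h at 37°C under 5% CO2/5% O2. Viability was read as LDH activity (NBT/diaphorase, A650 after freeze-thaw). Percent inhibition was calculated against chloroquine and DMSO controls, mean of three biological replicates.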

Series [3] has as its system HepG2 cells. Put plainly: HepG2 cytotoxicity assay. Conditions: for IC50: read-out: HepG2 cytotoxicity assay IC50, dose response confirmation. The method in brief: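 Here viability after a 48 h compound incubation (37°C, humidified 5% CO2) is measured by fluorescence and expressed as percent inhibition, with doxorubicin at 50 μM and DMSO as the bounding controls.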
Where [4] appears, read: read-out: Pb ODA IC50, this manuscript.
[5] abbreviates: read-out: Pb Ookinete development assay IC50, dose response confirmation.
[6] abbreviates: HepG2 values of the three screens unified.

As to `Cc1[nH]c(C)c(-c2ccc(-c3ccc(F)cc3)nc2)c(=O)c1Br` [TCMDC-135925], the “Is compound selective in assay? Pb ODA active?” value (“Is compound selective” below) in series [1] (1: YES, 0: NO) is listed as 1 (1: YES). Besides, the “% inhibition, Replicate A” value in series [1] is on record as 61.34%. Further, the “% inhibition, Replicate B” value in series [1] was 86.73%. For the same compound, the IC50 was found to be 540 nM in series [1] (setting [4]), 542 nM in series [1] (setting [5]), 319 nM in series [2] and 33100 nM in series [3]. Further, the “HepG2 cytoxicity (Pb ODA, this manuscript)” value in series [3] is reported as 33.11 µM. The Unified cytotox in series [3] (setting [6]) worked out at 33.11 µM.
On to `Cc1[nH]c(C)c(-c2ccc(-c3ccccc3F)nc2)c(=O)c1Br` [TCMDC-135926], for which the “Is compound selective” value in series [1] (1: YES, 0: NO) is 1 (1: YES). Moreover, the “% inhibition, Replicate A” value in series [1] stood at 85.66%. Further, the “% inhibition, Replicate B” value in series [1] amounted to 106.09%. Besides, the IC50 in series [1] (setting [4]) is 460 nM; in series [1] (setting [5]) it was 461 nM; in series [2], 222 nM; in series [3], 100000 nM. Also, the Unified cytotox in series [3] (setting [6]) stood at 100.00 µM.
For `Cc1[nH]c(C)c(-c2ccc(-c3ccccc3F)nc2)c(=O)c1Cl` [TCMDC-135927], the “Is compound selective” value in series [1] (1: YES, 0: NO) is 1 (1: YES). The “% inhibition, Replicate A” value in series [1] came out at 86.73%. In addition, the “% inhibition, Replicate B” value in series [1] was determined as 100.97%. For the same compound, the IC50 in series [1] (setting [4]) came out at 430 nM; in series [1] (setting [5]), 432 nM; in series [2], 339 nM; in series [3], 100000 nM. In addition, in series [3] (setting [6]), the Unified cytotox is on record as 100.00 µM.
On to `COc1cc(Nc2ncc3c(C)nc(-c4cccc(Nc5ccc(CN6CCS(=O)(=O)CC6)cc5)c4)n3n2)cc(OC)c1OC` [TCMDC-136003], for which the “Is compound selective” value in series [1] (1: YES, 0: NO) is listed as 1 (1: YES). For the same compound, the “% inhibition, Replicate A” value in series [1] is listed as 93.24%. Further, in series [1], the “% inhibition, Replicate B” value was 100.90%. The IC50 worked out at 180 nM in series [1] (setting [4]), 175 nM in series [1] (setting [5]), 1400 nM in series [2] and 30900 nM in series [3]. Also, the “Unified cytotox” value in series [3] (unified HepG2 value across the three screens) worked out at 30.90 µM.
Turning to `Cc1noc(C)c1-c1ccc2c(Nc3ccc(Cl)cc3)c(C(N)=O)cnc2c1.Cl` [TCMDC-136010], the “Is compound selective” value in series [1] was 0 (key: 1: YES; 0: NO). Besides, the “% inhibition, Replicate A” value in series [1] is reported as 77.30%. In series [1], the “% inhibition, Replicate B” value is 54.77%. Also, the IC50 in series [1] (read-out: Pb ODA (this manuscript) IC50, P. berghei ookinete development assay, this manuscript) turned out to be 6660 nM; in series [1] (setting [5]) it was 6660 nM; in series [2], 53 nM; in series [3], 4840 nM. The “Pb ODA (this manuscript) HepG2 cytoxicity” value in series [3] (HepG2 cytotoxicity listed with the Pb ODA data set (this manuscript)) stood at 4.84 µM.
Consider `Cc1[nH]c(C)c(-c2ccc(-c3ccc(C(F)(F)F)cc3C(F)(F)F)nc2)c(=O)c1Br` [TCMDC-136013], for which the “Is compound selective” value in series [1] (1: YES, 0: NO) was 1 (1: YES). For the same compound, the “% inhibition, Replicate A” value in series [1] is given as 94.49%. For the same compound, in series [1], the “% inhibition, Replicate B” value turned out to be 93.70%. The IC50 turned out to be 190 nM in series [1] (setting [4]), 185 nM in series [1] (setting [5]), 154 nM in series [2] and 7410 nM in series [3]. The “HepG2 cytoxicity (Pb ODA, this manuscript)” value in series [3] is 7.41 µM. The Unified cytotox in series [3] (setting [6]) is on record as 7.41 µM.
On to `Cc1[nH]c(C)c(-c2ccc(CCc3cccc(C(F)(F)F)c3)nc2)c(=O)c1Cl` [TCMDC-136014], for which, in series [1] (1: YES, 0: NO), the “Is compound selective” value is 1 (1: YES). Moreover, in series [1], the “% inhibition, Replicate A” value amounted to 91.00%. Moreover, in series [1], the “% inhibition, Replicate B” value was 104.63%. Moreover, the IC50 in series [1] (setting [4]) worked out at 120 nM; in series [1] (setting [5]), 123 nM; in series [2], 93 nM; in series [3], 7080 nM. The “HepG2 cytoxicity (Pb ODA, this manuscript)” value in series [3] came out at 7.08 µM. Besides, in series [3] (setting [6]), the Unified cytotox worked out at 7.08 µM.
For `Cc1[nH]c(C)c(-c2ccc(-c3cc(C(F)(F)F)cc(C(F)(F)F)c3)nc2)c(=O)c1Br` [TCMDC-136015], the “Is compound selective” value in series [1] (1: YES, 0: NO) is given as 1 (1: YES). Also, the “% inhibition, Replicate A” value in series [1] was determined as 84.59%. Moreover, the “% inhibition, Replicate B” value in series [1] is 96.22%. Moreover, the IC50 in series [1] (setting [4]) is 110 nM; in series [1] (setting [5]) it was 107 nM; in series [2] it was 24 nM; in series [3] it was 1260 nM. The “HepG2 cytoxicity (Pb ODA, this manuscript)” value in series [3] amounted to 1.26 µM. This compound also gave a Unified cytotox in series [3] (setting [6]) of 1.26 µM.

In general, IC50 refers to the midpoint of a concentration-inhibition curve.

Source of the values: paper PMC6753678, “Fueling Open Innovation for Malaria Transmission-Blocking Drugs: Hundreds of Molecules Targeting Early Parasite Mosquito Stages” (Frontiers in Microbiology, 2019).
